According to patent US20070270488A1, “Treatment and Assays” (The Queen's University of Belfast, priority 2004, published 2007):

How the values were obtained:
[1] = test system: p53^−/− CPT-11-resistant HCT116 cells; experiment: Flow cytometry cell cycle/apoptosis, p53^−/− CPT-11-resistant cells; type: cell-based, human; details: p53^−/− CPT-11-resistant cell line, data not shown
[2] = test system: p53^+/+ HCT116 cells; experiment: PARP cleavage immunoblotting, p53^+/+ HCT116 cells; type: cell-based, human; details: 5 μM, 48 hours, Western blot
Procedure: (§4) Immunoblotting. Cells, were seeded at 1×10^6 cells per plate in 90 mm tissue culture dishes. […] After 48 hours, cells were harvested and resuspended in 200 μl of 1× RIPA buffer (20 mM TRIS pH7.4, 150 mM NaCl, 1 mM EDTA pH8.0, 1% Triton X-100, 0.1% SDS). Cells were lysed and centrifuged at 13,200 rpm/4° C. for 15 minutes to remove cell debris.
(§5) Protein concentrations were determined using the BCA protein assay reagent (Pierce, Rockford, Ill.). Twenty micrograms of each protein sample were resolved by SDS-PAGE and transferred to a PVDF membrane by electroblotting. Immunodetection was performed using anti-PARP or anti-β-tubulin mouse monoclonal antibodies and a 1/2000 dilution of a horseradish peroxidase-conjugated sheep anti-mouse secondary antibody (Amersham, Buckinghamshire, England). The fluorescent signal was detected using the Super Signal chemiluminescent detection system (Pierce) according to the manufacturer's instructions.

[3] = test system: advanced CRC; details: monotherapy; cited from earlier work
[4] = test system: HCT116 p53^−/− parental cells; experiment: MTT cytotoxicity assay, HCT116 p53^−/− parental cells; type: cell-based, human
Procedure: (§1) Tissue culture. HCT116 p53^+/+ and p53^−/− isogenic human colon cancer cells were kindly provided by Professor Bert Vogelstein (John Hopkins University, Baltimore, Md.). Drug-resistant HCT116 sub-lines were developed in the inventors' laboratory by repeated exposure to stepwise increasing concentrations of 5-FU, CPT-11 or oxaliplatin over a period of approximately ten months. Parental and drug-resistant HCT116 cell lines were grown in McCoy's 5A medium supplemented with 10% dialysed foetal calf serum (FCS), 50 μg/ml penicillin-streptomycin, 2 mM L-glutamine and 1 mM sodium pyruvate (all from GIBCO Invitrogen Corporation, Paisley, Scotland) and maintained at 37° C. in a humidified atmosphere containing 5% CO2. 5-FU-resistant p53^+/+ and p53^−/− HCT116 cells were maintained in the presence of 2 μM and 4 μM 5-FU respectively. CPT-11-resistant p53^+/+ and p53^−/− HCT116 cells were maintained in the presence of 1 μM and 3 μM CPT-11 respectively. […] Prior to each experiment, resistant sub-lines were cultured in the absence of drug for 48 hours.
(§2) Cytotoxicity studies. Cells were seeded at 2000 cells per well in 96-well microtiter plates. After 48 hours, cells were treated with a range of concentrations of 5-FU, CPT-11 or oxaliplatin.
(§3) After 72 hours, 25 μl of MTT dye (5 mg/ml) was added to each well and the plates were incubated at 37° C. for 3 hours. Dark-blue formazan crystals formed by live cells were dissolved in 200 μl of DMSO and absorbance in individual wells was determined at 570 nm using an Emax precision microplate reader (Molecular Devices, Sunnyvale, Calif.).

[5] = test system: p53^−/− 5-FU-resistant HCT116 cells; experiment: Flow cytometry cell cycle/apoptosis, p53^−/− 5-FU-resistant cells; type: cell-based, human; details: 1 μM, 5 μM and 10 μM, relative to untreated control cells
Procedure: as §1
Flow cytometry. Cells were seeded at 5×10^4 cells per well in 6-well plates. After 48 hours, cells were treated with a range of concentrations of 5-FU, CPT-11 or oxaliplatin. Seventy-two hours post-treatment, cells were harvested in 5 ml of 1× PBS/0.5 mM EDTA and pelleted by centrifugation at 1000 rpm/4° C. for 5 minutes. […]

[6] = test system: p53^−/− oxaliplatin-resistant HCT116 cells; experiment: MTT cytotoxicity assay, p53^−/− oxaliplatin-resistant HCT116 cells; type: cell-based, human; details: p53^−/− oxaliplatin-resistant, MTT, 72 h; read-out: IC50(72 h)
Procedure: as §1, §2, §3

[7] = test system: p53^−/− HCT116 cells; experiment: PARP cleavage immunoblotting, p53^−/− HCT116 cells; type: cell-based, human; details: 5 μM, 48 hours, Western blot
Procedure: as §4, §5

[8] = test system: p53^+/+ HCT116 parental cells; experiment: Flow cytometry cell cycle/apoptosis, p53^+/+ HCT116 parental cells; type: cell-based, human; details: 72 hours
Procedure: (§6) Parental and drug-resistant HCT116 cell lines were grown in McCoy's 5A medium supplemented with 10% dialysed foetal calf serum (FCS), 50 μg/ml penicillin-streptomycin, 2 mM L-glutamine and 1 mM sodium pyruvate (all from GIBCO Invitrogen Corporation, Paisley, Scotland) and maintained at 37° C. in a humidified atmosphere containing 5% CO2. 5-FU-resistant p53^+/+ and p53^−/− HCT116 cells were maintained in the presence of 2 μM and 4 μM 5-FU respectively. […] Prior to each experiment, resistant sub-lines were cultured in the absence of drug for 48 hours.
(§7) Flow cytometry. Cells were seeded at 5×10^4 cells per well in 6-well plates. […] Seventy-two hours post-treatment, cells were harvested in 5 ml of 1× PBS/0.5 mM EDTA and pelleted by centrifugation at 1000 rpm/4° C. for 5 minutes. Cell pellets were washed once with 1× PBS/1% FCS, fixed in 70% ethanol and stained with propidium iodide. Analyses were performed on a Beckman Coulter Epics XL flow cytometer (Miami, Fla.).

[9] = test system: p53^−/− CPT-11-resistant HCT116 cells; experiment: MTT cytotoxicity assay, p53^−/− CPT-11-resistant HCT116 cells; type: cell-based, human
Procedure: (§8) Tissue culture. HCT116 p53^+/+ and p53^−/− isogenic human colon cancer cells were kindly provided by Professor Bert Vogelstein (John Hopkins University, Baltimore, Md.). […] Parental and drug-resistant HCT116 cell lines were grown in McCoy's 5A medium supplemented with 10% dialysed foetal calf serum (FCS), 50 μg/ml penicillin-streptomycin, 2 mM L-glutamine and 1 mM sodium pyruvate (all from GIBCO Invitrogen Corporation, Paisley, Scotland) and maintained at 37° C. in a humidified atmosphere containing 5% CO2. 5-FU-resistant p53^+/+ and p53^−/− HCT116 cells were maintained in the presence of 2 μM and 4 μM 5-FU respectively. […] Prior to each experiment, resistant sub-lines were cultured in the absence of drug for 48 hours.

[10] = test system: p53^−/− 5-FU-resistant HCT116 cells; experiment: MTT cytotoxicity assay, p53^−/− 5-FU-resistant HCT116 cells; type: cell-based, human
Procedure: as §8

[11] = test system: p53^+/+ oxaliplatin-resistant HCT116 cells; experiment: MTT cytotoxicity assay, p53^+/+ oxaliplatin-resistant HCT116 cells; type: cell-based, human; details: p53^+/+ oxaliplatin-resistant, MTT, 72 h; read-out: IC50(72 h)
Procedure: as §1, §2, §3

[12] = test system: p53^+/+ CPT-11-resistant HCT116 cells; experiment: MTT cytotoxicity assay, p53^+/+ CPT-11-resistant HCT116 cells; type: cell-based, human; details: p53^+/+ CPT-11-resistant, MTT, 72 h; read-out: IC50(72 h)
Procedure: as §8

[13] = test system: p53^−/− HCT116 parental cells; experiment: Flow cytometry cell cycle/apoptosis, p53^−/− HCT116 parental cells; type: cell-based, human; details: 72 hours
Procedure: as §6, §7

[14] = test system: p53^+/+ 5-FU-resistant HCT116 cells; experiment: MTT cytotoxicity assay, p53^+/+ 5-FU-resistant HCT116 cells; type: cell-based, human
Procedure: as §8

[15] = test system: resected stage III CRC; details: adjuvant 5-FU-based chemotherapy, patients with resected stage III CRC; cited from earlier work
[16] = test system: HCT116 p53^+/+ parental cells; experiment: MTT cytotoxicity assay, HCT116 p53^+/+ parental cells; type: cell-based, human; details: HCT116 p53^+/+ parental, 72 h, read-out: IC50(72 h)
Procedure: as §1, §2, §3

[17] = test system: p53^+/+ 5-FU-resistant HCT116 cells; experiment: Flow cytometry cell cycle/apoptosis, p53^+/+ 5-FU-resistant cells; type: cell-based, human; details: 72 hours
Procedure: as §6, §7

Compound: O=c1[nH]cc(F)c(=O)[nH]1 [5-FU]
- cross-resistance examined using cell cycle analyses [1]: no evidence of cross-resistance
- PARP cleavage [2]: observed
- response rates [3]: 10 to 15%
- IC50 ([4]; HCT116 p53^−/− parental, MTT, 72 h, read-out: IC50(72 h)): 19.7 µM
- increase in IC50 (72 h) dose in p53^−/− compared to p53^+/+ cells ([4]; parental HCT116 p53^−/− vs p53^+/+): 4.6 fold
- cell cycle distribution [5]: no change in cell cycle profile
- IC50 [6]: 22 µM
- PARP cleavage [7]: not
- cell cycle distribution ([8]; 1 μM): S-phase arrest and evidence of polyploidy
- cell cycle distribution ([8]; 5 μM and 10 μM): arrested in G2/M-phase
- sub-G0/G1 content ([8]; 5 μM and 10 μM, ~4% in control samples): 30-35%
- increase in IC50 (72 hr) compared to parental cells ([9]; p53^−/− CPT-11-resistant vs p53^−/− parental): ~2 fold
- IC50 ([9]; p53^−/− CPT-11-resistant, MTT, 72 h, read-out: IC50(72 h)): 47 µM
- increase in IC50 (72 hr) compared to parental cells ([10]; p53^−/− 5-FU-resistant vs p53^−/− parental): 9.0 fold
- IC50 ([10]; p53^−/− 5-FU-resistant, MTT, 72 h, read-out: IC50(72 h)): 178 µM
- IC50 [11]: 3.6 µM
- IC50 [12]: 4.2 µM
- cell cycle distribution ([13]; 1 μM): arrested in S-phase
- cell cycle distribution ([13]; 5 μM and 10 μM): majority of p53^−/− parental cells had DNA content >4N
- drug-induced apoptosis in p53^−/− compared to p53^+/+ parental cells ([13]; range of concentrations): significantly less apoptosis
- increase in IC50 (72 hr) compared to parental cells ([14]; p53^+/+ 5-FU-resistant vs p53^+/+ parental): 3.0 fold
- IC50 ([14]; p53^+/+ 5-FU-resistant, MTT, 72 h, read-out: IC50(72 h)): 12.7 µM
- improvement of disease-free survival [15]: 35%
- improvement of overall survival [15]: 22%
- IC50 [16]: 4.3 µM
- cell cycle distribution ([17]; 1 μM): no change in cell cycle profile
- cell cycle distribution ([17]; 5 μM and 10 μM): majority of cells had arrested at the G1/S boundary
- induction of apoptosis compared to parental cells ([17]; 5 μM and 10 μM): significantly reduced
